Key:
[1] = test system: LTB4 synthesis in human whole blood; assay: human whole blood (HWB) assay, inhibition of LTB4 production; type: cell-based; details: heparinized human whole blood, calcimycin 20 μM stimulation, plasma LTB4
Description: The compounds of the invention are additionally tested in a human whole blood (HWB) assay to determine their ability to inhibit the synthesis of LTB4 in a cellular system. Compounds are combined with heparinized human whole blood and incubated for 15 minutes at 37° C. Calcimycin (20 μM final, prepared in phosphate-buffered saline, pH 7.4) is then added and the mixture is incubated for another 30 minutes at 37° C. The samples are centrifuged for 5 min at low speed (1500×g) and the plasma layer is removed. Plasma LTB4 concentrations are then measured using an antibody-based homogenous time-resolved fluorescence method (CisBio, Bedford, Mass.). In general, the preferred potency range (IC50) of compounds in the HWB assay is between 10 nM to 10 μM, the more preferred potency range is 10 nM to 1 μM, and the most preferred potency range is 10 nM to 100 nM.

human LTA4 hydrolase = target: T1, human LTA4 hydrolase (Homo sapiens, UniProt P09960); assay: LTA4H Enzyme assay (peptidase, Arg-AMC cleavage); type: biochemical; details: LTA4H enzyme 1 nM, Arg-AMC substrate 50 μM, room temperature 1 h, fluorescence 380/460 nm
T1 sequence (P09960 1-611): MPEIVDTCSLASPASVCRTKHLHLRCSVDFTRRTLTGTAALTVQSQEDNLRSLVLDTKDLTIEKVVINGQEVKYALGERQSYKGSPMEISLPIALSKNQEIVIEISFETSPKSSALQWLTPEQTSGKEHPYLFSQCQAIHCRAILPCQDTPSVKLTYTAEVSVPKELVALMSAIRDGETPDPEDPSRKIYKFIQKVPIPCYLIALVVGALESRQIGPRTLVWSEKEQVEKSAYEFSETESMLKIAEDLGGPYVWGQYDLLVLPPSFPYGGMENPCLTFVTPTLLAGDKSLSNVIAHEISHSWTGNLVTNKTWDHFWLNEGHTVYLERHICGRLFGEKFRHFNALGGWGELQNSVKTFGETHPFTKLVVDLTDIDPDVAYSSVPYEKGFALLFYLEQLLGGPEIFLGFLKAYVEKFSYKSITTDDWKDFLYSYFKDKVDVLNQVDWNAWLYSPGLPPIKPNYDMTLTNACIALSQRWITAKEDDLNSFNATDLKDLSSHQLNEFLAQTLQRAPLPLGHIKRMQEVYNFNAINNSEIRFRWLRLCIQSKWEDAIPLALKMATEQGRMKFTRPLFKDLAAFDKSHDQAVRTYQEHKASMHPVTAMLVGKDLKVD
Description: The compounds of the invention are assessed for the ability to interact with human LTA4 hydrolase in an enzymatic assay that measures the ability of the enzyme to cleave the peptide bond of arginyl-aminomethylcoumarin (Arg-AMC). LTA4H Enzyme (1 nM final), Arg-AMC substrate (50 μM final), and compound are combined in a reaction buffer (50 mM Tris-HCl (pH 7.5), 100 mM KCl, 0.5% bovine serum albumin) at room temperature for 1 h. The formation of product is assessed by measuring the fluorescence of aminomethylcoumarin product (excitation wavelength 380 nm/emission wavelength 460 nm). In general, the preferred potency range (IC50) of compounds in the LTA4H Enzyme assay is between 0.1 nM to 10 μM, the more preferred potency range is 0.1 nM to 0.1 μM, and the most preferred potency range is 0.1 nM to 10 nM.

| SMILES | IC50 [1] [nM] | IC50 (human LTA4 hydrolase) [nM] |
| --- | --- | --- |
| COCC(=O)N1CCN(Cc2ccc3cc(Oc4ccc(-c5ccn[nH]5)cn4)ccc3c2)CC1 [Example 1, 2-Methoxy-1-(4-{6-[5-(2H-pyrazol-3-yl)-pyridin-2-yloxy]-naphthalen-2-ylmethyl}-piperazin-1-yl)-ethanone] | 180 | 0.63 |
| CC(=O)NC1CCN(Cc2ccc3cc(Oc4ccc(-c5ccn[nH]5)cn4)ccc3c2)CC1 [Example 6, N-(1-{6-[5-(2H-Pyrazol-3-yl)-pyridin-2-yloxy]-naphthalen-2-ylmethyl}-piperidin-4-yl)-acetamide] | 210 | 0.37 |
| O=C1[C@@H](O)CCN1C1CCN(Cc2ccc3cc(Oc4ccc(-c5ccn[nH]5)cn4)ccc3c2)CC1 [Example 7, (S)-3-Hydroxy-1-(1-{6-[5-(2H-pyrazol-3-yl)-pyridin-2-yloxy]-naphthalen-2-ylmethyl}-piperidin-4-yl)-pyrrolidin-2-one] | 180 | 0.68 |
| CN(C)CC1CCc2cc(Oc3ccc(-c4ccn[nH]4)cc3)ccc2O1 (centres unmarked) [Example 8, dimethyl-{6-[4-(2H-pyrazol-3-yl)-phenoxy]-chroman-2-ylmethyl}-amine] | 99 | 0.35 |
| NC(=O)C1CCN(CC2CCc3ccc(Oc4ccc(-c5ccn[nH]5)cn4)cc3O2)CC1 (centres unmarked) [Example 9, 1-{7-[5-(2H-Pyrazol-3-yl)-pyridin-2-yloxy]-chroman-2-ylmethyl}-piperidine-4-carboxylic acid amide] | 1300 | 4.2 |
| O=C(CO)N1CCN(Cc2ccc3cc(Oc4ccc(-c5ccn[nH]5)cc4)ccc3n2)CC1 [Example 10, 2-hydroxy-1-(4-{6-[4-(2H-pyrazol-3-yl)-phenoxy]-quinolin-2-ylmethyl}-piperazin-1-yl)-ethanone] | 150 | 0.53 |
| CCC(=O)N1CCN(Cc2ccc3cc(Oc4ccc(-c5ccn[nH]5)cc4)ccc3n2)CC1 [Example 12, 1-(4-{6-[4-(2H-pyrazol-3-yl)-phenoxy]-quinolin-2-ylmethyl}-piperazin-1-yl)-propan-1-one] | 190 | 0.45 |
| C[C@H](O)C(=O)N1CCN(Cc2ccc3cc(Oc4ccc(-c5ccn[nH]5)cc4)ccc3n2)CC1 [Example 13, (S)-2-hydroxy-1-(4-{6-[4-(2H-pyrazol-3-yl)-phenoxy]-quinolin-2-ylmethyl}-piperazin-1-yl)-propan-1-one] | 200 | 0.59 |
| c1cc(-c2ccc(Oc3ccc4cc(CN5CCOCC5)nn4c3)cc2)[nH]n1 [Example 14, 2-morpholin-4-ylmethyl-6-[4-(2H-pyrazol-3-yl)-phenoxy]-pyrazolo[1,5-a]pyridine] | 310 | 1.2 |
| O=C(N1CCN(Cc2ccc3cc(Oc4ccc(-c5ccn[nH]5)cc4)ccc3n2)CC1)C1(O)CC1 [Example 15, (1-hydroxy-cyclopropyl)-(4-{6-[4-(2H-pyrazol-3-yl)-phenoxy]-quinolin-2-ylmethyl}-piperazin-1-yl)-methanone] | 810 | 2.4 |
| O=S1(=O)CC2CC1CN2Cc1ccc2cc(Oc3ccc(-c4ccn[nH]4)cc3)ccc2n1 (centres unmarked) [Example 17, 2-(2,2-Dioxo-2-λ-6-thia-5-aza-bicyclo[2.2.1]hept-5-ylmethyl)-6-[4-(2H-pyrazol-3-yl)-phenoxy]-quinoline] | 430 | 1.1 |
| CC(=O)N1CC2CCC(C1)N2Cc1ccc2cc(Oc3ccc(-c4ccn[nH]4)cn3)ccc2n1 [Example 24, 1-(8-{6-[5-(2H-Pyrazol-3-yl)-pyridin-2-yloxy]-quinolin-2-ylmethyl}-3,8-diaza-bicyclo[3.2.1]oct-3-yl)-ethanone] | 99 | 0.33 |

More lines, now with the values ahead:

| IC50 [1] [nM] | IC50 (human LTA4 hydrolase) [nM] | SMILES |
| --- | --- | --- |
| 130 | 0.39 | CC(=O)N1CCN(Cc2ccc3cc(Oc4ccc(-c5ccn[nH]5)cn4)ccc3c2)CC1 [Example 2, 1-(4-{6-[5-(2H-Pyrazol-3-yl)-pyridin-2-yloxy]-naphthalen-2-ylmethyl}-piperazin-1-yl)-ethanone] |
| 120 | 0.34 | c1cc(-c2ccc(Oc3ccc4cc(CN5CCCC5)ccc4c3)nc2)[nH]n1 [Example 3, 5-(2H-Pyrazol-3-yl)-2-(6-pyrrolidin-1-ylmethyl-naphthalen-2-yloxy)-pyridine] |
| 190 | 0.54 | OC1CCN(Cc2ccc3cc(Oc4ccc(-c5ccn[nH]5)cn4)ccc3c2)CC1 [Example 4, 1-{6-[5-(2H-Pyrazol-3-yl)-pyridin-2-yloxy]-naphthalen-2-ylmethyl}-piperidin-4-ol] |
| 220 | 0.46 | NC(=O)C1CCN(Cc2ccc3cc(Oc4ccc(-c5ccn[nH]5)cn4)ccc3c2)CC1 [Example 5, 1-{6-[5-(2H-Pyrazol-3-yl)-pyridin-2-yloxy]-naphthalen-2-ylmethyl}-piperidine-4-carboxylic acid amide] |
| 180 | 0.65 | O=C1OCCN1C1CCN(Cc2ccc3cc(Oc4ccc(-c5ccn[nH]5)cn4)ccc3n2)CC1 [Example 11, 3-(1-{6-[5-(2H-pyrazol-3-yl)-pyridin-2-yloxy]-quinolin-2-ylmethyl}-piperidin-4-yl)-oxazolidin-2-one] |
| 250 | 1.1 | O=C1OC[C@@H]2CN(Cc3ccc4cc(Oc5ccc(-c6ccn[nH]6)cn5)ccc4n3)CCN12 [Example 16, (S)-7-{6-[5-(2H-pyrazol-3-yl)-pyridin-2-yloxy]-quinolin-2-ylmethyl}-hexahydro-oxazolo[3,4-a]pyrazin-3-one] |
| 580 | 2 | O=C1CCC2CN(Cc3ccc4cc(Oc5ccc(-c6ccn[nH]6)cn5)ccc4n3)CCN12 (centres unmarked) [Example 18, 2-{6-[5-(2H-pyrazol-3-yl)-pyridin-2-yloxy]-quinolin-2-ylmethyl}-hexahydro-pyrrolo[1,2-a]pyrazin-6-one] |
| 70 | 0.24 | c1cc(-c2ccc(Oc3ccc4nc(CN5CCCC5)ccc4c3)nc2)[nH]n1 [Example 19, 6-[5-(2H-Pyrazol-3-yl)-pyridin-2-yloxy]-2-pyrrolidin-1-ylmethyl-quinoline] |
| 82 | 0.3 | c1cc(-c2ccc(Oc3ccc4nc(CN5CCC6(COC6)C5)ccc4c3)nc2)[nH]n1 [Example 20, 2-(2-Oxa-6-aza-spiro[3.4]oct-6-ylmethyl)-6-[5-(2H-pyrazol-3-yl)-pyridin-2-yloxy]-quinoline] |
| 86 | 0.22 | c1cc(-c2ccc(Oc3ccc4nc(CN5CCC5)ccc4c3)nc2)[nH]n1 [Example 21, 2-Azetidin-1-ylmethyl-6-[5-(2H-pyrazol-3-yl)-pyridin-2-yloxy]-quinoline] |
| 89 | 0.36 | c1cc(-c2ccc(Oc3ccc4nc(CN5CCCCCC5)ccc4c3)nc2)[nH]n1 [Example 22, 2-Azepan-1-ylmethyl-6-[5-(2H-pyrazol-3-yl)-pyridin-2-yloxy]-quinoline] |
| 90 | 0.48 | c1cc(-c2ccc(Oc3ccc4nc(CN5CCCCC5)ccc4c3)nc2)[nH]n1 [Example 23, 2-Piperidin-1-ylmethyl-6-[5-(2H-pyrazol-3-yl)-pyridin-2-yloxy]-quinoline] |
| 110 | 0.5 | CNCc1ccc2cc(Oc3ccc(-c4ccn[nH]4)cn3)ccc2n1 [Example 25, Methyl-{6-[5-(2H-pyrazol-3-yl)-pyridin-2-yloxy]-quinolin-2-ylmethyl}-amine] |

From patent publication US9403830B2, “Inhibitors of leukotriene production” (Boehringer Ingelheim International GmbH, priority 2012, dated 2016)
